# Assays:
# [1] = biological target: T1, 3-oxo-5-alpha-steroid 4-dehydrogenase 1 (Homo sapiens, UniProt P18405); assay: Inhibition of human steroid 5-alpha-reductase 1
# T1 sequence (P18405 whole entry): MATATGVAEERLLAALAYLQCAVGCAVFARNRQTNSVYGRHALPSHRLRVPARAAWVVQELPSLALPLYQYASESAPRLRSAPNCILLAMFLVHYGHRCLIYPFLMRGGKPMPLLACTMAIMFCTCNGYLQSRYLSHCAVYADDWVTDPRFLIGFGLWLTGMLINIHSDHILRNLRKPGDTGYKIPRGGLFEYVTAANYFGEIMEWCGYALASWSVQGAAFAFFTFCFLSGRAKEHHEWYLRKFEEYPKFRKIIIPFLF
# [2] = Inhibition of lipid synthesis in androgen stimulated Hamster flank gland; assay type: functional, Mesocricetus auratus
# [3] = Upregulation of NE suppressed c-Kit expression in human epidermal melanocyte; assay type: functional, cell-based
# Mus musculus [4] = species on record: Mus musculus; assay: Anti-inflammatory activity in imiquimod-induced C57BL/6 mouse psoriasis model assessed as reduction in epidermal thickness at 200 uL relative to control; assay type: functional; set-up: scale not given: the % may be the effect or the level left
# Mus musculus [5] = species on record: Mus musculus; assay: Anti-inflammatory activity in imiquimod-induced BALB/c mouse psoriasis model assessed as reduction in skin inflammation; assay type: functional, organism-based
structure (smiles),measurement,setting,value
CC1=C2CCc3cc(/C=C/c4ccccc4)ccc3N2CCC1=O,IC50,[1],14.2 nM
C[C@]12C=CC(=O)C=C1CC[C@@H]1[C@@H]2C(=O)C[C@@]2(C)[C@H]1CC[C@]2(Cl)S(=O)(=O)Cc1ccccc1,inhibition (INH),[2],70%
COC(=O)C1=CO[C@@H](O[C@@H]2O[C@H](CO)[C@@H](O)[C@H](O)[C@H]2O)[C@@H]2C(CO)=CC[C@H]12 [GENIPOSIDE],EC50,[3],1650 nM
CCc1ccc(N(CC(C)C)S(=O)(=O)c2ccc(OCC3CCOCC3)c(CO)c2)cc1 [GSK2981278],Activity,Mus musculus [4],23%
CN1C(=O)[C@@H](NC(=O)c2n[nH]c(Cc3ccccc3)n2)COc2ccccc21 [GSK2982772],EC50,Mus musculus [5],4 nM

# From ChEMBL document CHEMBL5512627, “Small-molecule agents for treating skin diseases” (Eur J Med Chem, 2024)
